Assay [1] deals with HCC827. Nature of the assay: Antiproliferative activity against doxycycline-induced RICTOR-knockdown human HCC827 cells. Format: functional, cell-based.
Assay [2] has as its system HCC827. Kind of assay: Antiproliferative activity against erlotinib-resistant doxycycline-induced RICTOR-knockdown human HCC827 cells assessed as fold decrease in compound IC50. It is filed as functional.
Assay [3] has as its system PC-9. Kind of assay: Antiproliferative activity against doxycycline-induced RICTOR-knockdown human PC-9 cells. It is filed as functional, cell-based.
Assay [4] relates to HCC827. Nature of the assay: Antitumor activity against erlotinib-resistant doxycycline-induced RICTOR-knockdown human HCC827 cells xenografted in mouse assessed as decrease in Axl expression. Format: functional, cell-based.
Assay [5] deals with HCC827. Nature of the assay: Antitumor activity against erlotinib-resistant doxycycline-induced RICTOR-knockdown human HCC827 cells xenografted in mouse assessed as inhibition of tumor growth. Format: functional, cell-based. (In xenograft studies the graft and the host belong to different species.)
The subject of assay [6] is NCI-H1703. Kind of assay: Inhibition of RICTOR-amplified human NCI-H1703 cells invasion. Format: functional, cell-based.
The test system of assay [7] is NCI-H23. Kind of assay: Antitumor activity against RICTOR-knockdown human NCI-H23 cells xenografted in mouse assessed as inhibition of tumor growth. Format: functional.
Assay [8] concerns NCI-H23. Nature of the assay: Inhibition of RICTOR-amplified human NCI-H23 cells invasion. Format: functional, cell-based.
In assay [9] the test system is HCC827. Kind of assay: Inhibition of RICTOR-upregulated human HCC827 cell invasion. It is filed as functional, cell-based.
For assay [10], the system named is NCI-H1703. Kind of assay: Inhibition of RICTOR-amplified human NCI-H1703 cells migration. Format: functional, cell-based.
The test system of assay [11] is NCI-H23. Nature of the assay: Inhibition of RICTOR-amplified human NCI-H23 cells migration. Format: functional, cell-based.
Assay [12] relates to HCC827. Nature of the assay: Inhibition of RICTOR-upregulated human HCC827 cell migration. It is filed as functional, cell-based.
Assay [13] deals with HCC827. Kind of assay: Induction of apoptosis in erlotinib-resistant human HCC827 cells with RICTOR-knockdown. Format: functional, cell-based.
Assay [14] concerns HCC827. Nature of the assay: Induction of apoptosis in RICTOR-upregulated human HCC827 cells. Format: functional, cell-based.
Assay [15] deals with PC-9. Nature of the assay: Down-regulation of Axl in RICTOR-knockdown human PC-9 cells assessed as half-life of Axl. It is filed as functional, cell-based.

The values below come from ChEMBL document CHEMBL5050837, “Rictor-targeted therapy in the management of brain metastases” (2021).

Active and inactive are the calls of the source. The calls are words filed in the database; no cut-off is given here.

As for `C#Cc1cccc(Nc2ncnc3cc(OCCOC)c(OCCOC)cc23)c1` [ERLOTINIB], the result in the assay on HCC827 [1], with PC-9 [3], in the assay on HCC827 [4] and in the assay with HCC827 [5] was Active. Moreover, the “fold change (FC)” value in the assay on HCC827 [2] came out at 1000.

Regarding `CC(C)n1nc(-c2ccc3oc(N)nc3c2)c2c(N)ncnc21` [SAPANISERTIB], the inhibition entry in the assay with NCI-H1703 [6], with NCI-H23 [8], in the assay with HCC827 [9], in the assay on NCI-H1703 [10], in the assay on NCI-H23 [11] and in the assay with HCC827 [12] was “Active” throughout. Moreover, in the assay on NCI-H23 [7], the TGI (in general, how far tumour growth fell short of that in controls) amounted to 75%.

As to `CN(C)C/C=C/C(=O)Nc1cc2c(Nc3ccc(F)c(Cl)c3)ncnc2cc1O[C@H]1CCOC1`, the result with HCC827 [1] was Active.

`CNC(=O)c1cccc(-c2ccc3c(N4CCOC[C@@H]4C)nc(N4CCOC[C@@H]4C)nc3n2)c1`: the inhibition result in the assay with NCI-H1703 [6], with NCI-H23 [8], in the assay with NCI-H1703 [10] and in the assay on NCI-H23 [11] was “Active” in each case.

Regarding `C=CC(=O)Nc1cc(Nc2nccc(-c3cn(C)c4ccccc34)n2)c(OC)cc1N(C)CCN(C)C`, the outcome in the assay with PC-9 [3] and in the assay on HCC827 [13] was Active. The outcome in the assay on HCC827 [14] was inactive.

Consider `C[C@@H]1C[C@@H]([C@H](O)CC2CC(=O)NC(=O)C2)C(=O)[C@@H](C)C1`, for which the T1/2 in the assay with PC-9 [15] was determined as 3.2 h.
